According to patent US20090209460A1, “COMPOSITIONS AND METHODS FOR TREATING OBESITY AND RELATED METABOLIC DISORDERS” (Amylin Pharmaceuticals, Inc., priority 2005, published 2009):
Residues, ends and D or L forms follow the SMILES beside them.

How the values were obtained:
[1] = body weight and food intake in mice with diet induced obesity (mouse DIO), osmotic pump; assay type: in vivo; conditions: mouse DIO
Procedure, shortened: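 Male C57BL/6 mice, 4 weeks old at start, were fed a 58% kcal-fat diet for 4 weeks. Interscapular osmotic pumps then delivered peptide continuously at the indicated dose, or vehicle (50% DMSO in water or saline). Body weight and food intake were recorded weekly.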

[2] = test system: over-night fasted rats; assay: food intake in over-night fasted rats, given intraperitoneally; assay type: in vivo, rat; conditions: 0.1 to 1.5 mg/kg, 30 and 60 minutes
Description: FN38 in vehicle (10% DMSO in saline) was administered at 0.1 to 1.5 mg/kg. The food intake in grams and as a percent of vehicle are presented in FIGS. 4A and 4B at 30 and 60 minutes, respectively. FIG. 4C presents the same data plotted as grams of food consumed (intake) versus time. The results cannot be attributed to a locomotor effect (data not shown).

[3] = target: DPP-IV (Homo sapiens, UniProt P27487); assay: DPP-IV degradation; assay type: in vitro ADME; conditions: isolated DPP-IV peptidase, 25 mM HEPES buffer, 37 degrees C., 10 mM peptide, read-out: intact after contact with DPP-IV
DPP-IV, sequence (P27487 whole entry, species assumed): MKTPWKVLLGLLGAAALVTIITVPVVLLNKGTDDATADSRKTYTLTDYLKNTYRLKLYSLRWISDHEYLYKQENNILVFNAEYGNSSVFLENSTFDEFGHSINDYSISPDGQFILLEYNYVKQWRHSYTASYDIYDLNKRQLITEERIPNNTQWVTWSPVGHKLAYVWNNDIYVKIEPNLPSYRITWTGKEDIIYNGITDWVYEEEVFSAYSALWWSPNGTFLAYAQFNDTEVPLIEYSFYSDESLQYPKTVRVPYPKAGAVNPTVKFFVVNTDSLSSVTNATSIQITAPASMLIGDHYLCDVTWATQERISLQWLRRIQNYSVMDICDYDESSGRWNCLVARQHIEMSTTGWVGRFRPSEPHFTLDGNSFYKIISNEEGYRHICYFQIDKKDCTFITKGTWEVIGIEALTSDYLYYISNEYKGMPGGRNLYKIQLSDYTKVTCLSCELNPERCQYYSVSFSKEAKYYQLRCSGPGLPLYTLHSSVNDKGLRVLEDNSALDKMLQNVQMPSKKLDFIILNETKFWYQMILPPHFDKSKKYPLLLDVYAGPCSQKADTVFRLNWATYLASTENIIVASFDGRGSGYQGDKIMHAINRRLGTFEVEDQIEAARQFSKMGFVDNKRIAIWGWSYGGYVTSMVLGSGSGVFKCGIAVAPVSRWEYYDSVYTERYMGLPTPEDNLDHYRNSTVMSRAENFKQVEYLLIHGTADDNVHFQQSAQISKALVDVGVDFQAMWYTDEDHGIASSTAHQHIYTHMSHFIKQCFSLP
Description: Peptide and peptidase were incubated in 25 mM HEPES buffer at 37 degrees C. at 10 mM peptide.

[4] = brush border membrane (BBM) stability assay; assay type: in vitro ADME, human
Procedure, shortened: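 Peptides digested up to 5 h at 37 °C with human brush border membrane extract (e.g. kidney). Timepoints quenched with 50% ACN, 1% FA, centrifuged, intact peptide quantified by selected-ion mass spectrometry. Expressed as percent stable.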

[5] = cumulative weight gain in rats with diet induced obesity (rat DIO), subcutaneous pump for seven days; assay type: in vivo; conditions: subcutaneously continuously by pump for seven days
Description: Both compounds were administered subcutaneously continuously by pump for seven days at the rate and dosage indicated.

[6] = test system: NIH/Swiss mice; assay: acute food intake assay, lean overnight-fasted NIH/Swiss mice, intraperitoneal injection; assay type: in vivo, mouse; conditions: for Activity (percent decrease in cumulative food intake compared to the vehicle), AUC: intraperitoneal, timepoint 120 min
Procedure, shortened: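 Overnight-fasted lean female NIH/Swiss mice (8-24 weeks, group housed) received vehicle or peptide intraperitoneally at time 0, then pre-weighed standard chow. Food consumed was weighed at 30, 60 and 120 min and expressed as % change versus control.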

CC(C)C[C@H](NC(=O)[C@H](CCCCN)NC(=O)[C@H](CCC(N)=O)NC(=O)[C@@H](NC(=O)[C@H](CCCCN)NC(=O)[C@H](CO)NC(=O)[C@H](Cc1ccc(O)cc1)NC(=O)[C@H](Cc1c[nH]cn1)NC(=O)[C@H](Cc1ccccc1)NC(=O)[C@H](CC(C)C)NC(=O)[C@@H](N)Cc1ccccc1)[C@@H](C)O)C(=O)NCC(=O)N[C@@H](CCCCN)C(=O)N[C@@H](CO)C(=O)N[C@@H](CC(N)=O)C(=O)N[C@H](C(=O)N[C@H](C(=O)N[C@@H](CCC(=O)O)C(=O)N[C@@H](CCC(=O)O)C(=O)N[C@@H](CC(C)C)C(=O)N[C@@H](CCC(N)=O)C(=O)N[C@@H](CO)C(=O)N1CCC[C@H]1C(=O)N[C@@H](Cc1ccccc1)C(=O)N[C@@H](C)C(=O)N[C@@H](CO)C(=O)N[C@@H](CCC(N)=O)C(=O)N[C@@H](CO)C(=O)N[C@@H](CCCNC(=N)N)C(=O)NCC(=O)N[C@@H](Cc1ccc(O)cc1)C(=O)N[C@@H](Cc1ccccc1)C(=O)N[C@@H](CC(C)C)C(=O)N[C@@H](Cc1ccccc1)C(=O)N[C@@H](CCCNC(=N)N)C(=O)N1CCC[C@H]1C(=O)N[C@@H](CCCNC(=N)N)C(=O)N[C@@H](CC(N)=O)C(N)=O)C(C)C)C(C)C [Compound 163661] (H-FLFHYSKTQKLGKSNVVEELQSPFASQSRGYFLFRPRN-NH2; N-terminus assumed)
d 2 BWt loss ([1]; day 2): 6.5% | d 7 BWt loss ([1]; day 7): 4.3% | effect on food intake in over-night fasted rats [2]: inhibiting food intake | remaining at 50 min, 10 mM [3]: ~100% | remaining at 5 h ([4]; brush border membrane extract (e.g. kidney), percent compound remaining after a 5 hour incubation, human brush border membrane assay, read-out: hBBM): 62% | BBM ([4]; percent of stable, human brush border membrane extracts, five hours, 37° C.): 62% | cumulative weight gained in rat DIO (FIG. 5) [5]: reduction of cumulative weight gained | reduction of food intake ([6]; administered systemically (i.p. to mice), dose and time not stated): 64% | FI (60′, 200) ([6]; food intake, % change relative to control, 60 min, dose 200): 0% | ED50 at t = 60 ([6]; food intake, t = 60): 4 nmol/kg | Activity (percent decrease in cumulative food intake compared to the vehicle), AUC ([6]; dose 0.3 nmol/kg): 0% | Activity (percent decrease in cumulative food intake compared to the vehicle), AUC ([6]; dose 1 nmol/kg): −23% | Activity (percent decrease in cumulative food intake compared to the vehicle), AUC ([6]; dose 3 nmol/kg): −25% | Activity (percent decrease in cumulative food intake compared to the vehicle), AUC ([6]; dose 10 nmol/kg): −48% | Activity (percent decrease in cumulative food intake compared to the vehicle), AUC ([6]; dose 30 nmol/kg): −58% | Activity (percent decrease in cumulative food intake compared to the vehicle), AUC ([6]; dose 100 nmol/kg): −72% | Activity (percent decrease in cumulative food intake compared to the vehicle), AUC ([6]; dose 300 nmol/kg): −60% | Activity (percent decrease in cumulative food intake compared to the vehicle), AUC ([6]; dose 1000 ug/kg): −46% | Food Intake Inhibition ([6]; mouse assay, dose of 200 mg/kg, measured at 60 minutes): −46% | ED50 for effect on food intake ([6]; over 30 min, i.p., mice): 8.6 nmol/kg
